Active and inactive are the calls of the source. The rule behind the calls is not given here.

In general, IC50 refers to the point on the concentration scale where inhibition reaches its midpoint.

This assay addresses glucose-6-phosphate dehydrogenase-6-phosphogluconolactonase (Plasmodium falciparum 3D7). The assay can be described thus: PfG6PD inhibitor potency, dose response, biochemical, fluorescence intensity (AID 504765). To be noted: Recombinant PfG6PD enzyme, fluorescence intensity (NADPH).

Turning to `O=C(Nc1ccc(N2CCN(C(=O)c3ccco3)CC2)c(Cl)c1)c1cc2ccccc2o1`, the IC50 is 10.3 µM. As for `Cc1ccc(SC2=C(Sc3ccc(C)cc3)C(=O)c3ccccc3C2=O)cc1`, the IC50 was 11 µM.

Turning to `CCCCC1C(=O)N(c2ccccc2)N(c2ccc(O)cc2)C1=O` (stereo not drawn), the IC50 was 12.5 µM.

Take `COc1ccc(S(=O)(=O)/N=C2\C=C(Nc3ccc(O)cc3)C(=O)c3ccccc32)cc1`: the IC50 entry is “inactive”. The figure for `CC(=O)Nc1cc([N+](=O)[O-])ccc1OCc1ccccc1` is 19.8 µM; for `CC(CNc1ccccc1O)C(=O)O` (stereo not drawn) it is 6.16 µM; for `CCOC(=O)CSc1nnc(NC(=O)c2cccc([N+](=O)[O-])c2)s1` it is 6.49 µM. The figure for `Cc1cnc(C=NNC(N)=S)c2cccc(N)c12` is 1.72 µM.

In the case of `COc1cc(CNc2ccc(N3CCCC3)cc2)ccc1OCc1ccccc1F`, the IC50 is 2.39 µM. The result for `COc1ccc(C(=O)Nc2nnc(S(=O)(=O)N3CCOCC3)s2)cc1` reads 7 µM; that for `Cc1nc2ccccn2c1-c1ccnn1S(=O)(=O)c1ccc(F)cc1`, 15.2 µM; that for `CCC1(C)CC(C(N)=S)CCO1` (stereo not drawn), “inactive”. Regarding `COC(=O)CCC(=O)OC1(C)C(=O)C2=CN(c3ccccc3)C(c3ccc(OC)cc3)=CC2=C(Br)C1=O` (stereo not drawn), the IC50 is 3.16 µM. The result for `Clc1ccc(N=c2ssnc2Cl)nc1` reads “inactive”. On to `Cc1cc(O)c(C(C)C)cc1N=Cc1ccc([N+](=O)[O-])cc1`, for which the IC50 is 6.99 µM. The figure for `Cc1cc(C)c(S(=O)(=O)/N=C2/C=C(SCC(=O)O)C(=O)c3ccccc32)cc1C` is 2.41 µM; for `CCOc1ccc(Cl)cc1/C=N/NC(N)=O` it is 12.4 µM; for `CC(=O)c1cccc(NC(=O)c2cnn(-c3ccccc3)c2C)c1` it is 8.46 µM. In the case of `Brc1cc2[nH]cnc2c2ccccc12`, the IC50 was 17.6 µM. The result for `Cc1ccc(NS(=O)(=O)c2ccccc2Cl)c2c1CC(C)(C)O2` reads 8.18 µM; that for `OCc1ccccc1SSc1ccccc1CO`, 16.5 µM. For `CC(C)Nc1ccc(Nc2ccccc2)cc1`, the IC50 was 12.1 µM.

With `Cc1ccc(NC(=O)c2ccc(Cl)c(N3C(=O)C=CC3=O)c2)cc1`, the IC50 was 7.52 µM. The result for `Cc1[nH]c2ccccc2c1/C=N/NC(=O)c1cccc(S(=O)(=O)Nc2ccccc2Cl)c1` reads 8.71 µM.

Regarding `Cc1ccc(/C=C/C(=O)Nc2ccc([N+](=O)[O-])c(NC(=O)/C=C/c3ccc(C)o3)c2)o1`, the IC50 was 4.84 µM. The result for `COc1ccc(C(=O)Nc2cc(Cl)ccc2C(=O)O)cc1` reads 15 µM; that for `Cc1cc(C)c2c(=O)n(CC(=O)Nc3cccc(Cl)c3C)sc2n1`, 5.51 µM. The result for `Cc1c(N=C2C=C(Br)C(=O)C(Br)=C2)c(=O)n(-c2ccccc2)n1C` reads 7.32 µM. As to `Cc1cccc(C2(c3cccc(C)c3)CC2C(=O)Nc2ccc([N+](=O)[O-])cc2O)c1` (stereo not drawn), the IC50 is 13.2 µM. The figure for `CC(=O)Nc1ccc(S(=O)(=O)/N=C2\C(=O)c3ccccc3C([O-])=C2n2cc[n+](-c3ccccn3)c2)cc1` is 12.9 µM; for `CCOc1ccc2ccccc2c1/C=N/NC(=O)c1ccncc1` it is 3.49 µM.

Consider `CC1=CC(=NOC(=O)/C=C/c2ccccc2)C=C(C)C1=O`, for which the IC50 was 13.9 µM.

Regarding `CC1N(C)c2cccc3cccc(c23)N1C`, the IC50 is 11.2 µM. The entry for `CCSc1nc2cc(S(=O)(=O)N3CCOCC3)ccc2o1` is “inactive”. The result for `Cc1cc(C)c2c(=O)n(CC(=O)Nc3cccc(F)c3)sc2n1` reads 1.89 µM; that for `Cc1ccc(NC(=O)c2cc(N3C(=O)C=CC3=O)ccc2N2CCOCC2)cc1Cl`, 12.2 µM; that for `CCOc1cc(CNc2ccc(N3CCCC3)cc2)cc(Cl)c1OC`, 3.87 µM. As to `COC1=C(Br)C(=O)c2nc(C)ccc2C1=O`, the IC50 is 4.24 µM.

For `O=C1C=CC(=O)N1c1ccc2c(c1)C(NC(=O)C(F)(F)F)c1ccccc1-2` (stereo not drawn), the IC50 is 9.14 µM. As for `Oc1ccc(C2C[C@H]3CC[C@@H]2C3)cc1O` (stereo partly drawn), the IC50 is 5.71 µM.

Regarding `CCCCOc1ccc(Cc2n[nH]c(=S)n2N)cc1`, the IC50 result is “inactive”. The result for `CC1CCc2[nH]c3ccc(C(=O)N(C)CC(=O)Nc4ccccc4C(F)(F)F)cc3c2C1` (stereo not drawn) reads 5.61 µM; that for `CN1CCN(C(=S)C(=O)Nc2ccc(Br)cc2)CC1`, 7.26 µM.

Take `N#Cc1ccc(N=c2ssnc2Cl)cc1`: the IC50 was 13.8 µM.

Regarding `CN(C)C=Nc1ccc2nc3c(cc2c1)[nH]c1ccccc13`, the IC50 is 9.98 µM. With `COc1ccc(CCn2c(NN=C(C)C)nc3c2c(=O)[nH]c(=O)n3C)cc1`, the IC50 is 4.82 µM. Take `CCNc1ccccc1CP(=O)(c1ccccc1)c1ccccc1O` (stereo not drawn): the IC50 was 6.81 µM. `c1ccc(SSc2ccccn2)nc1`: the IC50 was 9.82 µM. For `O=C(CNc1ccc2c(c1)OCO2)N/N=C\c1cn(Cc2ccccc2)c2ccccc12`, the IC50 result is “inactive”.

For the compound `O=C(Nc1nnc(S(=O)(=O)N2CCOCC2)s1)c1ccc(F)cc1`, the concentration for half-maximal inhibition (IC50) is 11.4 µM. The result for `CCCn1cc(S(=O)(=O)CC(=O)Nc2ccc(OC)cc2OC)c2ccccc21` reads 7.87 µM; that for `COCc1cc(=O)n2[nH]c(C(C)(C)C)cc2n1`, 14.1 µM. The result for `CC(=O)Nc1ccc2c(=O)n(-c3ccccc3)sc2c1` reads 8.52 µM.

As for `COc1cc(N=c2ssnc2Cl)c(OC)cc1Cl`, the IC50 is 13.5 µM.

In the case of `CN(C)c1ccc(C=c2c3cc([N+](=O)[O-])ccc3n3c2cc(-c2ccccc2)[n+]3C)cc1`, the IC50 is 8.44 µM.

Regarding `Cc1[nH]c(=S)c(C#N)c(C)c1CCC#N`, the IC50 result was “inactive”. `COc1cc(C(=O)O/N=C2\C=CC(=O)C=C2C)cc(OC)c1OC`: the IC50 is 14.1 µM. For `CCN(CC)c1ccc(NC(=O)c2cccc(C)c2)cc1S(=O)(=O)Nc1ccccc1OC`, the IC50 result is “inactive”.

As for `Cc1cc(C)nc(/N=C(\N)Nc2ccccc2-c2ccccc2)n1`, the IC50 was 8.17 µM. The figure for `Cc1cccc(C(=O)Nc2sc3c(c2C(=O)O)CCCC3)c1` is 8.55 µM; for `CN(C)c1ncc(C2=C(Cl)C(=O)C(N3CCCC3)=C(Cl)C2=O)s1` it is 3.32 µM. The figure for `COc1ccc(NC(=S)N(CCC(C)C)C2CCN(C(C)C)CC2)cc1Cl` is 14.3 µM; for `O=C(CCC(=O)Nc1ccccc1Cl)N/N=C/c1ccccc1` it is 3.17 µM; for `Cc1cc(SCC(=O)N/N=C/c2ccco2)nc2ccccc12` it is 8.11 µM.

For `C/C(Cn1nnc([N+](=O)[O-])n1)=N\NC(=O)c1ccc(O)cc1`, the IC50 is 14.6 µM.

Turning to `Nn1c(SCC(=O)Nc2cccnc2Cl)nnc1-c1ccccc1`, the IC50 result was “inactive”. The figure for `O=c1c2cc(C(F)(F)F)ccc2sn1-c1ccccc1` is 3.89 µM; for `CCOC(=O)c1c(C)n(-c2ccc(C)cc2)c2c(C(C(C)=O)C(=O)O)c(Br)c(O)c(O)c12` (stereo not drawn) it is 2.76 µM; for `CCOC(=O)Nc1ccc(NCc2ccc(F)cc2)nc1N` it is 3 µM. The figure for `CN(C)Cc1cc(O)c(CN(C)C)cc1O` is 2.03 µM.

Consider `c1nc(SSc2ncnc3nc[nH]c23)c2[nH]cnc2n1`, for which the IC50 was 4.78 µM.

As for `Cc1ccc(S(=O)(=O)N(C)C)cc1NC(=O)CSc1nc2ncc(Cl)cc2[nH]1`, the IC50 is 12.1 µM. The entry for `CCN(CC)C(=O)c1c(C)[nH]c(=S)c(C#N)c1-c1ccco1` is “inactive”.

Source of the values: PubChem BioAssay AID504765 (Sanford-Burnham Center for Chemical Genomics, 2011).
